Source: patent publication US10702498B2 (priority 2015, dated 2020)
Where two headings read alike, the source gives them in different places.

Key:
[1] = molecular target: MOR (Homo sapiens (Human), UniProt P35372); assay: Receptor binding, [3H]diprenorphine
[2] = molecular target: humanDOR (Homo sapiens (Human), UniProt P41143); assay: Receptor binding, [3H]diprenorphine
[3] = molecular target: hKOR (Homo sapiens (Human), UniProt P41145); assay: Receptor binding, [3H]diprenorphine
[4] = molecular target: T1, μOR (Homo sapiens (Human), UniProt P35372); assay: cell-based; assay type: cell-based
[5] = molecular target: μOR β-arrestin2 recruitment (Homo sapiens (Human), UniProt P35372); assay: β-Arrestin2 recruitment without GRK2 co-expression (BRET); assay type: cell-based
[6] = molecular target: human μOR β-arrestin2 recruitment + GRK2 (Homo sapiens (Human), UniProt P35372); assay: β-Arrestin2 recruitment with GRK2 co-expression (BRET); assay type: cell-based; details: GRK2 co-expressed
[7] = molecular target: T1, μOR; assay: BRET-based cAMP accumulation assay (Gi/o signaling, SAR of PZM21-29); assay type: cell-based; details: for loss of potency in Gi/o signaling assay: compared to parent reference compound (PZM22)
[8] = read-out: binding affinity Ki [nM] hDOR

hKOR, sequence (P41145 whole entry): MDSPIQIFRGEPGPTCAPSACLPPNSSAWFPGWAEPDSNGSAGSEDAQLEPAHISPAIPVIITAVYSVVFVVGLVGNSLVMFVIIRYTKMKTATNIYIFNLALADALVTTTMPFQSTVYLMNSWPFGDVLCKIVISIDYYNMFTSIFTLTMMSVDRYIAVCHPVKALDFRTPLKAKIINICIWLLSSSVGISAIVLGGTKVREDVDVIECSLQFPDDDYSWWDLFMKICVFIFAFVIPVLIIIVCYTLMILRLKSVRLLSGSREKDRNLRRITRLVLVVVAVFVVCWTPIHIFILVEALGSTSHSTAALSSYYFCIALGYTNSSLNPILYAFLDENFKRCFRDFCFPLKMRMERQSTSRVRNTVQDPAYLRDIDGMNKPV
humanDOR, sequence (P41143 whole entry): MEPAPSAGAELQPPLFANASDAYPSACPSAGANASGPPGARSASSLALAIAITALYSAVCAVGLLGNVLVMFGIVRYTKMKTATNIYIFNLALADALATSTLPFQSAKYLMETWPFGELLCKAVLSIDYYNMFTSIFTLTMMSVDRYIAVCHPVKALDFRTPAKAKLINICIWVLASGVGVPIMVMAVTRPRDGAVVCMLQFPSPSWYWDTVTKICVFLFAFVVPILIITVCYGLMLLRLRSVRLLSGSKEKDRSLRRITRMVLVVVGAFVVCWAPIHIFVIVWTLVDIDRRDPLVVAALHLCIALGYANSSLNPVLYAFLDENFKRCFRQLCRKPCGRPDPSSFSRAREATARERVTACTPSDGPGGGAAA
MOR, sequence (P35372 whole entry): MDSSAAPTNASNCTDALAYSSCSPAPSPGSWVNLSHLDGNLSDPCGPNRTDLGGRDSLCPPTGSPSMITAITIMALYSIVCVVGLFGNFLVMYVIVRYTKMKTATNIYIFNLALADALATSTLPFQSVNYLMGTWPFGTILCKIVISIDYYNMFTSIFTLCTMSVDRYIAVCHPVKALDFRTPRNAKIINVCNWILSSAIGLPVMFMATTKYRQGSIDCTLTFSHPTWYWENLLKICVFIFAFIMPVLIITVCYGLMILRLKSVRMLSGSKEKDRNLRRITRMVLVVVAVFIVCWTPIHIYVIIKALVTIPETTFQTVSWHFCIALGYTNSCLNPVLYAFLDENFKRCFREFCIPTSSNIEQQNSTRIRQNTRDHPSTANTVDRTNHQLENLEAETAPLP

CC(Cc1csc2ccccc12)NC(=O)NC[C@H](Cc1ccc(O)cc1)N(C)C (mixture of isomers) [DD 63L-RS]
Ki ([1]; binding affinity Ki [nM] hMOR): 14 nM | Ki ([1]; hMOR [3H]dyprenorphine Ki): 16 ± 1.4 nM | Ki [2]: 44 ± 1.4 nM | Ki [2, 8]: 44 nM | Ki ([3]; binding affinity Ki [nM] hKOR): 19 nM | Ki ([3]; hKOR [3H]dyprenorphine Ki): 14 ± 0.71 nM

C[C@H](Cc1ccsc1)NC(=O)NC[C@H](Cc1ccccc1)N(C)C (stereo in doubt) [BD 127LR]
Ki [2]: 1800 ± 150 nM | Ki [2, 8]: 1800 nM | Ki ([3]; binding affinity Ki [nM] hKOR): 1300 nM | Ki ([3]; hKOR [3H]dyprenorphine Ki): 1300 ± 300 nM

C[C@H](Cc1ccsc1)NC(=O)NC[C@H](Cc1ccc(O)cc1)N(C)C [(S,R)-21, 1-[(S)-2-(Dimethylamino)-3-(4-hydroxyphenyl)propyl]-3-((R)-1-(thiophen-3-yl)propan-2-yl)urea]
Gi/o activation / μOR agonist activity [4]: more potent partial agonist of the μOR as compared to (S,S)-21

C[C@@H](Cc1ccsc1)NC(=O)NC[C@H](Cc1ccccc1)N(C)C [(S,S)-12, 1-[(S)-2-(Dimethylamino)-3-phenylpropyl]-3-[(S)-1-(thiophen-3-yl)propan-2-yl]urea]
Gi/o activation / μOR agonist activity [4]: most potent and efficacious Gi/o signaling agonist among the four isomers

CN(CCCl)[C@H](CNC(=O)NCCc1ccccc1)Cc1ccc(O)cc1 [DD185, (S)-1-(2-((2-chloroethyl)(methyl)amino)-3-(4-hydroxyphenyl)propyl)-3-phenethylurea]
Ki [2]: 360 nM

CN(CCO)[C@H](CNC(=O)NCCc1ccccc1)Cc1ccc(O)cc1 [DD186, (S)-1-(2-((2-hydroxyethyl)(methyl)amino)-3-(4-hydroxyphenyl)propyl)-3-phenethylurea]
Ki [1]: 970 nM | Ki [2]: 1800 nM | Ki [3]: 1300 nM

C[C@@H](Cc1ccsc1)NC(=O)NC[C@H](Cc1ccc(O)cc1)N(C)Cc1ccccc1 [DD187, 1-((S)-2-(benzyl(methyl)amino)-3-(4-hydroxyphenyl)propyl)-3-((S)-1-(thiophen-3-yl)propan-2-yl)urea]
Ki [1]: 220 nM | Ki [2]: 720 nM | Ki [3]: 210 nM

COc1ccccc1CCNC(=O)NC[C@H](Cc1ccc(O)cc1)N(C)C [DD198, (S)-1-(2-(dimethylamino)-3-(4-hydroxyphenyl)propyl)-3-(2-methoxyphenethyl)urea]
Ki ([1]; binding affinity Ki [nM] hMOR): 22 nM | Ki [2]: 150 nM | Ki ([3]; binding affinity Ki [nM] hKOR): 140 nM

COc1cccc(CCNC(=O)NC[C@H](Cc2ccc(O)cc2)N(C)C)c1 [DD200, (S)-1-(2-(dimethylamino)-3-(4-hydroxyphenyl)propyl)-3-(3-methoxyphenethyl)urea]
Ki [1]: 110 nM | Ki [2]: 220 nM | Ki [3]: 1300 nM

COc1ccc(CCNC(=O)NC[C@H](Cc2ccc(O)cc2)N(C)C)cc1 [DD201, (S)-1-(2-(dimethylamino)-3-(4-hydroxyphenyl)propyl)-3-(4-methoxyphenethyl)urea]
Ki [1]: 330 nM | Ki [2]: 10000 nM | Ki [3]: 1500 nM

CN(C)[C@H](CNC(=O)NC(C)(C)Cc1ccsc1)Cc1ccc(O)cc1 [DD 32L, (S)-1-(2-(dimethylamino)-3-(4-hydroxyphenyl)propyl)-3-(2-methyl-1-(thiophen-3-yl)propan-2-yl)urea]
Arrestin pEC50 [5]: 8.282 | Gi/o pEC50 [4]: 7.629 | Arrestin + GRK2 pEC50 [6]: 7.306

CN(C)[C@H](CNC(=O)NC(C)(C)Cc1ccccc1)Cc1ccc(O)cc1 [DD 33L, (S)-1-(2-(dimethylamino)-3-(4-hydroxyphenyl)propyl)-3-(2-methyl-1-phenylpropan-2-yl)urea]
Gi/o pEC50 [4]: 7.008 | Arrestin + GRK2 pEC50 [6]: 6.874

C[C@@H](Cc1ccsc1)NC(=O)NC[C@H](Cc1cccc(O)c1)N(C)C [DD 47LS, 1-((S)-2-(dimethylamino)-3-(3-hydroxyphenyl)propyl)-3-((S)-1-(thiophen-3-yl)propan-2-yl)urea]
Arrestin pEC50 [5]: 6.447 | Gi/o pEC50 [4]: 7.77 | Arrestin + GRK2 pEC50 [6]: 6.676

C[C@H](NC(=O)NC[C@H](Cc1ccc(O)cc1)N(C)C)c1ccccc1 [DD 53LS, 1-((S)-2-(dimethylamino)-3-(4-hydroxyphenyl)propyl)-3-((S)-1-phenylethyl)urea]
Arrestin pEC50 [5]: 7.168 | Gi/o pEC50 [4]: 8.512 | Arrestin + GRK2 pEC50 [6]: 7.059

C[C@@H](Cc1ccccc1)NC(=O)NC[C@H](Cc1ccc(O)cc1)N(C)C [DD 61L-B, 1-((S)-2-(dimethylamino)-3-(4-hydroxyphenyl)propyl)-3-((S)-1-phenylpropan-2-yl)urea]
Arrestin pEC50 [5]: 7.075 | Gi/o pEC50 [4]: 7.45 | Arrestin + GRK2 pEC50 [6]: 6.556

C[C@@H](Cc1csc2ccccc12)NC(=O)NC[C@H](Cc1ccc(O)cc1)N(C)C [DD 63L-LB]
Arrestin pEC50 [5]: 6.401 | Gi/o pEC50 [4]: 8.244 | Arrestin + GRK2 pEC50 [6]: 7.086

CN(C)[C@H](CNC(=S)NCCc1ccsc1)Cc1ccc(O)cc1 [DD 81, (S)-1-(2-(dimethylamino)-3-(4-hydroxyphenyl)propyl)-3-(2-(thiophen-3-yl)ethyl)thiourea]
Arrestin pEC50 [5]: 7.604 | Gi/o pEC50 [4]: 7.821 | Arrestin + GRK2 pEC50 [6]: 7.173

CN(C)[C@H](CNC(=O)NCCc1ccccc1)Cc1ccc(O)cc1 [DD 90]
Arrestin pEC50 [5]: 7.272 | Gi/o pEC50 [4]: 8.371 | Arrestin + GRK2 pEC50 [6]: 6.841

C=CCN(CC(Cc1ccccc1)N(C)C)C(=O)N[C@@H](C)Cc1ccsc1 (stereo partly shown) [DD 93A]
Ki [2, 8]: ~15000 nM

C=CCN(CC(Cc1ccccc1)N(C)C)C(=O)N[C@H](C)Cc1ccsc1 (stereo partly shown) [DD 93B]
Ki [2, 8]: ~15000 nM

CN(CCc1ccccc1)C(=O)NC[C@H](Cc1ccc(O)cc1)N(C)C [DD 102]
Arrestin pEC50 [5]: 5.703 | Gi/o pEC50 [4]: 7.421 | Arrestin + GRK2 pEC50 [6]: 5.824

CN(C[C@H](Cc1ccc(O)cc1)N(C)C)C(=O)NCCc1ccccc1 [DD 108]
Arrestin pEC50 [5]: 5.327 | Gi/o pEC50 [4]: 7.455 | Arrestin + GRK2 pEC50 [6]: 5.826

C[C@@H](Cc1ccsc1)NC(=O)NC[C@H](Cc1ccc(O)c(CO)c1)N(C)C [DD 131, 1-((S)-2-(dimethylamino)-3-(4-hydroxy-3-(hydroxymethyl)phenyl)propyl)-3-((S)-1-(thiophen-3-yl)propan-2-yl)urea]
Arrestin pEC50 [5]: 6.639 | Gi/o pEC50 [4]: 8.1 | Arrestin + GRK2 pEC50 [6]: 6.671

CN(C)[C@H](CNC(=O)NCCCN1C(=O)C=CC1=O)Cc1ccc(O)cc1 [DD 138, (S)-1-(2-(dimethylamino)-3-(4-hydroxyphenyl)propyl)-3-(3-(2,5-dioxo-2,5-dihydro-1H-pyrrol-1-yl)propyl)urea]
Ki ([1]; binding affinity Ki [nM] hMOR): 580 nM

CN(C)[C@H](CNC(=O)NCCc1cn(Cc2ccccc2)nn1)Cc1ccc(O)cc1 [DD 154, (S)-1-(2-(1-benzyl-1H-1,2,3-triazol-4-yl)ethyl)-3-(2-(dimethylamino)-3-(4-hydroxyphenyl)propyl)urea]
Ki [2]: 580 nM

CN(C)[C@H](CNC(=O)NCCc1cn(CCOCCOCCN=[N+]=[N-])nn1)Cc1ccc(O)cc1 [DD 161, (S)-1-(2-(1-(2-(2-(2-azidoethoxy)ethoxy)ethyl)-1H-1,2,3-triazol-4-yl)ethyl)-3-(2-(dimethylamino)-3-(4-hydroxyphenyl)propyl)urea]
Ki [2]: 3000 nM | Ki [3]: 1200 nM

CN(C)[C@H](CNC(=O)NCCc1cn(CCOCCOCCOCCN=[N+]=[N-])nn1)Cc1ccc(O)cc1 [DD 165, (S)-1-(2-(1-(2-(2-(2-(2-azidoethoxy)ethoxy)ethoxy)ethyl)-1H-1,2,3-triazol-4-yl)ethyl)-3-(2-(dimethylamino)-3-(4-hydroxyphenyl)propyl)urea]
Ki [2]: 3900 nM | Ki ([3]; binding affinity Ki [nM] hKOR): 2900 nM

CN(C)[C@H](CNC(=O)NCCc1cn(CCOCCOCCOCCOCCOCCNC(=O)CCCC[C@@H]2SC[C@@H]3NC(=O)N[C@@H]32)nn1)Cc1ccc(O)cc1 [DD 170, N-(17-(4-(2-(3-((S)-2-(dimethylamino)-3-(4-hydroxyphenyl)propyl)ureido)ethyl)-1H-1,2,3-triazol-1-yl)-3,6,9,12,15-pentaoxaheptadecyl)-5-((3aS,4S,6aR)-2-oxohexahydro-1H-thieno[3,4-d]imidazol-4-yl)pentanamide]
Ki ([1]; read-out: binding affinity Ki [nM] hMOR): 13000 nM

CN(CC1CC1)[C@H](CNC(=O)NCCc1ccccc1)Cc1ccc(O)cc1 [DD 184]
Gi/o pEC50 [4]: 6.253

CN(C)[C@H](CNC(=O)NCCc1ccccc1F)Cc1ccc(O)cc1 [DDLM-08, (S)-1-(2-(dimethylamino)-3-(4-hydroxyphenyl)propyl)-3-(2-fluorophenethyl)urea]
Ki ([1]; binding affinity Ki [nM] hMOR): 43 nM | Ki [2]: 53 nM | Ki ([3]; binding affinity Ki [nM] hKOR): 440 nM

CN(C)[C@H](CNC(=O)NCCc1cccc(F)c1)Cc1ccc(O)cc1 [DDLM-10, (S)-1-(2-(dimethylamino)-3-(4-hydroxyphenyl)propyl)-3-(3-fluorophenethyl)urea]
Ki ([1]; binding affinity Ki [nM] hMOR): 36 nM | Ki [2]: 250 nM | Ki ([3]; binding affinity Ki [nM] hKOR): 170 nM

CN(C)[C@H](CNC(=O)NCCc1ccc(F)cc1)Cc1ccc(O)cc1 [DDLM-15, (S)-1-(2-(dimethylamino)-3-(4-hydroxyphenyl)propyl)-3-(4-fluorophenethyl)urea]
Ki ([1]; binding affinity Ki [nM] hMOR): 27 nM | Ki [2]: 250 nM | Ki ([3]; binding affinity Ki [nM] hKOR): 190 nM

CN(CC1CC1)[C@H](CNC(=O)NCCc1ccccc1)Cc1ccc(O)cc1 [PZM27, (S)-1-(2-((Cyclopropylmethyl)(methyl)amino)-3-(4-hydroxyphenyl)propyl)-3-phenethylurea×CF3COOH]
agonist efficacy / potency in Gi/o signaling assay [7]: decreased efficacy | loss of potency in Gi/o signaling assay [7]: 30 fold

CN(C=O)[C@H](CNC(=O)NCCc1ccccc1)Cc1ccc(O)cc1 [PZM28, (S)—N-(1-(4-Hydroxyphenyl)-3-(3-phenethylureido)propan-2-yl)-N-methylformamide]
loss of potency in Gi/o signaling assay [7]: 1000 fold
